pIC50: −log10 of the molar value. “And” between values parts separate entries of the source, which are not always exact repeats. Equal values may be shown once. Where a name gives a salt, the structure may show the parent alone. Read-outs that look alike come from different tables or passages of the source.
Experiments:
[1] = system: erythroid progenitor cells (EPCs); assay: Fetal hemoglobin (HbF) ELISA in day 7 erythroid progenitor cells; type: cell-based, human; conditions: Homo sapiens, Erythroid progenitor cell, HbF ELISA, day 7 EPCs, 5 days; read-out: EPC ELISA (pEC50 category) (converted)
Method: Day 7 EPCs were cultured in duplicate plates with serially diluted Compound A for 5 days at 37° C. Wells were then analyzed for either induction of fetal hemoglobin (HbF,HbF ELISA) or cell growth (Cell Titer-Glo). In both cases, signal was normalized to vehicle-control treated cells.
Culture, Expansion, and Characterization of Day 7 Erythroid Progenitor Cells (EPC)s
All donors provided written informed consent for use of their samples, and the collection and use of the samples received institutional review board approval. All cryopreserved human bone marrow CD34+ cells used here were obtained from AlICells (Emeryville, Calif.) and were generally from different donors. The CD34+ cells were cultured to generate EPCs at day 7. Briefly, 1 million cells were cultured in 5% CO2, 5% O2 at 37° C. in H3000 Stemspan media (StemCell Technologies Vancouver, BC, Canada) supplemented with 2 mM L-glutamine, 40 μg/mL human low-density lipoproteins (StemCell Technologies), 10 ng/mL recombinant human (rh) interleukin IL-3 (R&D Systems, Minneapolis, Minn.), 100 ng/mL rh stem cell factor (R&D Systems), and 0.5 U/mL rh erythropoietin (Invitrogen, Grand Island, N.Y.). Cells were split and refed on day 4 with complete culture media described above and harvested on day 7 for evaluation of erythroid marker expression and assessment of γ-globin induction. Day 7 EPCs were then frozen in liquid nitrogen at 5 to 10 million cells/mL in 95% fetal bovine serum (FBS; Invitrogen) with 5% DMSO for subsequent use.
At the time of compound treatment, frozen day 7 EPCs prepared as described above were thawed, washed once and re-suspended in complete culture media as described above with the exception of an increase of rhEPO to 3 U/mL. Cells were counted and diluted to […] for plating into assay plates. Cells were then dispensed, at 30 μL per well with Multidrop™ Combi Reagent Dispenser (Thermo Scientific), into 384-well cell culture plates into which test compounds were pre-dispensed at 100 nL/well. Black Clear Bottom (Greiner Bio-One; 781090) and White (Greiner Bio-One; 781080) plates were used for ELISA and Cell Titer-Glo assays, respectively. The final cell density in the assays is 1,000 cells per well, with final compound concentrations between 33 nM (highest) and […] (lowest) for the 22-points serial dilution.
Fetal Hemoglobin (HbF) ELISA
Coating anti-HbF Ab (Bethyl Lab; cat. A80-136A) was diluted by 100-fold in the coating buffer (0.05 M carbonate-bicarbonate, pH 9.6), and then 20 μL/well was added to a 384-well MaxiSorp ELISA plate (Thermo Fisher; cat. 464718). After 1 hour incubation at room temperature, the plates were washed twice with ELISA washing buffer (50 mM Tris, 0.05% Tween 20, pH 8.0) with an EL406 plate washer (BioTek, Winooski, Vt.). Then, 40 μL/well of blocking buffer consisting of 50 mM Tris and 1% BSA (pH 8.0) was added to the plate and stored at 4° C. with cover sheet overnight, or until time of the assay. The coated ELISA plates were stable for up to 30 days at 4° C. On the day of assay, the plates were washed twice with ELISA washing buffer prior to addition of cell lysate.
After 5 days at 37° C. with 5% CO2 cell culture plates for ELISA assay were put into −80° C. freezer for a minimum of 2 hours. After thawing at room temperature, 30 μL of cell lysis buffer (Invitrogen; cat. FNN0011, supplemented with 1× protease inhibitor) was added to each well and the resulting cell lysate was mixed eight times with a Cybi-Well (Jena, Germany) pipettor. Following the mixing procedure, 20 μL/well of lysate was transferred to the coated ELISA plates described above followed by a 1 hour incubation at room temperature. The ELISA assay plates were washed three times with ELISA wash buffer. 20 μL per well of 1:75,000 to 100,000 diluted horseradish peroxidase (HRP) conjugate detection antiHbF Ab (Bethyl Labs; cat. A80-136P, diluted in 50 mM Tris [pH 8.0], 1% BSA, 0.05% Tween-20) was then added. […]

DNMT1 = DNMT1 (Homo sapiens, UniProt P26358); assay: DNMT1 biochemical activity, breaklight assay and/or SPA assay
[2] = binned activity in either the breaklight or the SPA assay
[3] = binned activity in either the breaklight or the SPA assay, read-out: DNMT1 BioChemical (pIC50 category) (converted)
[4] = breaklight assay and/or SPA assay, repeated experimental runs, read-out: average pIC50 against DNMT1 (converted)

Chain of DNMT1 (P26358 whole entry, looked up): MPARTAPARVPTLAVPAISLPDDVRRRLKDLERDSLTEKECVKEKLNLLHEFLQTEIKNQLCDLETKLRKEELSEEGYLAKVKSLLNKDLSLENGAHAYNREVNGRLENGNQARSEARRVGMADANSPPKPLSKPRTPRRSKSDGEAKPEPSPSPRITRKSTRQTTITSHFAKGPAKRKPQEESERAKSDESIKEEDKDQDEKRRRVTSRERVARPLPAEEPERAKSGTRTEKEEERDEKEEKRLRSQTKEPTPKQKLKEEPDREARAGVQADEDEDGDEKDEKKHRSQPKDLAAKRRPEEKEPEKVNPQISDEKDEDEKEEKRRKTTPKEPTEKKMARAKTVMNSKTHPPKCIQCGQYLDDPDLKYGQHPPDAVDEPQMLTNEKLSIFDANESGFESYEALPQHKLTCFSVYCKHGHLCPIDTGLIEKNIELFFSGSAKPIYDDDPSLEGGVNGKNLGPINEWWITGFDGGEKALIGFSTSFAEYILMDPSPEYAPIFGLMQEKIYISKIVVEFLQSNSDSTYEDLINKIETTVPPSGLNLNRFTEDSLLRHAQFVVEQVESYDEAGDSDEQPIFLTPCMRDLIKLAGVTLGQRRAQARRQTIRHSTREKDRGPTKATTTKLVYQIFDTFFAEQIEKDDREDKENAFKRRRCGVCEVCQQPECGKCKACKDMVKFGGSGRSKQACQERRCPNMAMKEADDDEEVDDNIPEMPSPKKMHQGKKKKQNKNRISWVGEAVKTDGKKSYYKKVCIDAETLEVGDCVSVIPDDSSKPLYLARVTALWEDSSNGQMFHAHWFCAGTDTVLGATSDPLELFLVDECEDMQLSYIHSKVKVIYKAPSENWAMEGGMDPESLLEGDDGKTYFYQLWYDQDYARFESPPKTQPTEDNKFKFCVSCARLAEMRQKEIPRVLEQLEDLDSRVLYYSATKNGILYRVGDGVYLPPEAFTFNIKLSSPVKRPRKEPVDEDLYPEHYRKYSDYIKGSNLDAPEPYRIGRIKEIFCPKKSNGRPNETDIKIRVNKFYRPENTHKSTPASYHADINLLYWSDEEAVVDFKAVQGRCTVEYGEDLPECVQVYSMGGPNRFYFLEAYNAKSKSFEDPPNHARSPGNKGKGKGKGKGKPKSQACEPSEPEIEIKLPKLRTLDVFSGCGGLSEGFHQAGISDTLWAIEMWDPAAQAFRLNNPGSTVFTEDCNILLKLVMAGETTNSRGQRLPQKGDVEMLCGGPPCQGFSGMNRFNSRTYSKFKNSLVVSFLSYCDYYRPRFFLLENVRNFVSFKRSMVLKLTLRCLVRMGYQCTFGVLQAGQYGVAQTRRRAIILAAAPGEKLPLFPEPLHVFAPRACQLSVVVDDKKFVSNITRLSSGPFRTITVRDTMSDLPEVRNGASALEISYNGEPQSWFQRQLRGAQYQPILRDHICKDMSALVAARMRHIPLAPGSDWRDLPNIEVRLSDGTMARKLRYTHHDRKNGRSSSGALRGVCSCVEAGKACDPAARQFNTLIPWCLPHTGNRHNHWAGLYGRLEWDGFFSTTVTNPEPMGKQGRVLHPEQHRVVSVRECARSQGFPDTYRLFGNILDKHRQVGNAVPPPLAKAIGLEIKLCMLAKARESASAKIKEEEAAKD

| Structure (SMILES) | EC50 [1] | DNMT1 BioChemical (pIC50 category) (DNMT1; [2]) | IC50 (DNMT1; [3]) | IC50 (DNMT1; [4]) | average pIC50 against DNMT1 (DNMT1; breaklight assay and/or SPA assay, repeated experimental runs) | pIC50 (DNMT1; DNMT1 BioChemical (pIC50 category), binned activity in either the breaklight or the SPA assay) |
| --- | --- | --- | --- | --- | --- | --- |
| CN(C)C1CCN(c2nc(SC(C(N)=O)c3ccccc3)c(C#N)c(C3CC3)c2C#N)CC1 (stereo not shown) [Example 29, 2-((3,5-dicyano-4-cyclopropyl-6-(4-(dimethylamino)piperidin-1-yl)pyridin-2-yl)thio)-2-phenylacetamide] | < 0.316 µM | D (Category D: ≥6.5) |  |  |  |  |
| N#Cc1c(SC(C(N)=O)c2ccncc2)nc(N2CCNCC2)c(C#N)c1C1CC1 (stereo not shown) [Example 30, 2-((3,5-dicyano-4-cyclopropyl-6-(piperazin-1-yl)pyridin-2-yl)thio)-2-(pyridin-4-yl)acetamide] | > 31.6 µM |  | 0.316 to 1 µM |  |  |  |
| N#Cc1c(SC(C(N)=O)c2ccccc2)nc(N2CCC[C@@H](O)C2)c(C#N)c1C1CC1 (stereo partly drawn) [Example 32, 2-((3,5-dicyano-4-cyclopropyl-6-((R)-3-hydroxypiperidin-1-yl)pyridin-2-yl)thio)-2-phenylacetamide] | 1 to 31.6 µM | D (Category D: ≥6.5) |  |  |  |  |
| N#Cc1c(SC(C(N)=O)c2ccccc2)nc(N2CCC[C@H](O)C2)c(C#N)c1C1CC1 (stereo partly drawn) [Example 33, 2-(3,5-dicyano-4-cyclopropyl-6-((S)-3-hydroxypiperidin-1-yl)pyridin-2-ylthio)-2-phenylacetamide] | 0.316 to 1 µM |  | 0.316 to 1 µM |  |  |  |
| N#Cc1c(SC(C(N)=O)c2ccccc2)nc(N2CCC(CN3CCCC3)CC2)c(C#N)c1C1CC1 (stereo not shown) [Example 39, 2-((3,5-Dicyano-4-cyclopropyl-6-(4-(pyrrolidin-1-ylmethyl)piperidin-1-yl)pyridin-2-yl)thio)-2-phenylacetamide] | < 0.316 µM | D (Category D: ≥6.5) |  |  |  |  |
| CCc1c(C#N)c(SC(C(N)=O)c2ccccc2)nc(N2CC(OC)C2)c1C#N (stereo not shown) [Example 54, 2-((3,5-Dicyano-4-ethyl-6-(3-methoxyazetidin-1-yl)pyridin-2-yl)thio)-2-phenylacetamide] | 1 to 31.6 µM |  | 0.316 to 1 µM |  |  |  |
| CCc1c(C#N)c(SC(C(N)=O)c2ccccc2)nc(N(C)C2CC3CCC(C2)N3)c1C#N (stereo not shown) [Example 62, 2-((6-(8-azabicyclo[3.2.1]octan-3-yl(methyl)amino)-3,5-dicyano-4-ethylpyridin-2-yl)thio)-2-phenylacetamide] | 0.316 to 1 µM |  |  |  |  | 6.00 to 6.50 |
| CCc1c(C#N)c(S[C@@H](C(N)=O)c2ccccc2)nc(N2CCOCC2)c1C#N [Example 65, (R)-2-[(3,5-Dicyano-4-ethyl-6-morpholino-2-pyridyl)sulfanyl]-2-phenyl-acetamide] | 1 to 31.6 µM |  | 0.316 to 1 µM |  |  |  |
| CCc1c(C#N)c(SCc2ccc(CNC(C)=O)cc2)nc(N2CCC(N3CCCC3)CC2)c1C#N [Example 66, N-(4-((3,5-Dicyano-4-ethyl-6-(4-(pyrrolidin-1-yl)piperidin-1-yl)pyridin-2-ylthio)methyl)benzyl)acetamide trifluoroacetate] | < 0.316 µM | D (Category D: ≥6.5) |  |  |  |  |
| CCc1c(C#N)c(SC(C(N)=O)c2ccccc2)nc(N2CCNC(C)CC2)c1C#N (stereo not shown) [Example 67, 2-{[3,5-dicyano-4-ethyl-6-(5-methyl-1,4-diazepan-1-yl)pyridin-2-yl]sulfanyl}-2-phenylacetamide] | < 0.316 µM | D (Category D: ≥6.5) |  |  |  |  |
| CCc1c(C#N)c(SCc2ccc(CN)cc2)nc(N2CCC(N3CCCC3)CC2)c1C#N [Example 68, 2-(4-(Aminomethyl)benzylthio)-4-ethyl-6-(4-(pyrrolidin-1-yl)piperidin-1-yl)pyridine-3,5-dicarbonitrile 2,2,2-trifluoroacetate] | > 31.6 µM |  | 0.316 to 1 µM |  |  |  |
| CCc1c(C#N)c(SCc2ccc(CNC(=O)OC(C)(C)C)cc2)nc(N2CCCN(C)CC2)c1C#N [Example 69, tert-Butyl 4-(((3,5-dicyano-4-ethyl-6-(4-methyl-1,4-diazepan-1-yl)pyridin-2-yl)thio)methyl)benzylcarbamate] | > 31.6 µM |  | 1 to 31.6 µM | ≥ 1 µM |  |  |
| CCc1c(C#N)c(SCc2csc(NC(C)=O)n2)nc(N2CCCN(C)CC2)c1C#N [Example 75, N-(4-(((3,5-Dicyano-4-ethyl-6-(4-methyl-1,4-diazepan-1-yl)pyridin-2-yl)thio)methyl)thiazol-2-yl)acetamide] | > 31.6 µM |  | 0.316 to 1 µM |  |  |  |
| CCc1c(C#N)c(SCc2ccc(CNC(=O)CNC(=O)OC(C)(C)C)cc2)nc(N2CCCN(C)CC2)c1C#N [Example 78, tert-Butyl (2-((4-(((3,5-dicyano-4-ethyl-6-(4-methyl-1,4-diazepan-1-yl)pyridin-2-yl)thio)methyl)benzyl)amino)-2-oxoethyl)carbamate] | > 31.6 µM |  | 0.316 to 1 µM | ≥ 1 µM |  |  |

Continued, in another order:

| EC50 [1] | DNMT1 BioChemical (pIC50 category) (DNMT1; [2]) | IC50 (DNMT1; [3]) | IC50 (DNMT1; [4]) | average pIC50 against DNMT1 (DNMT1; breaklight assay and/or SPA assay, repeated experimental runs) | Structure (SMILES) | pIC50 (DNMT1; DNMT1 BioChemical (pIC50 category), binned activity in either the breaklight or the SPA assay) |
| --- | --- | --- | --- | --- | --- | --- |
| 0.316 to 1 µM |  | 0.316 to 1 µM | 0.316 to 1 µM |  | CCc1c(C#N)c(SCc2ccc(C(N)=O)cc2)nc(N2CCCN(C)CC2)c1C#N [Example 70, 4-(((3,5-Dicyano-4-ethyl-6-(4-methyl-1,4-diazepan-1-yl)pyridin-2-yl)thio)methyl)benzamide] |  |
| > 31.6 µM | D (Category D: ≥6.5) |  |  |  | CCc1c(C#N)c(SCc2ccc(CN)cc2)nc(N2CCCN(C)CC2)c1C#N [Example 71, 2-((4-(Aminomethyl)benzyl)thio)-4-ethyl-6-(4-methyl-1,4-diazepan-1-yl)pyridine-3,5-dicarbonitrile, 2Hydrochloride] |  |
| > 31.6 µM |  | 1 to 31.6 µM | ≥ 1 µM and 2 µM |  | CCc1c(C#N)c(SCc2ccc(CC(=O)O)cc2)nc(N2CCCN(C)CC2)c1C#N [Example 72, 2-(4-(((3,5-Dicyano-4-ethyl-6-(4-methyl-1,4-diazepan-1-yl)pyridin-2-yl)thio)methyl)phenyl)acetic acid] |  |
| > 31.6 µM |  | 0.316 to 1 µM |  |  | CCc1c(C#N)c(SCc2ccc(C(=O)O)cc2)nc(N2CCCN(C)CC2)c1C#N [Example 73, 4-(((3,5-Dicyano-4-ethyl-6-(4-methyl-1,4-diazepan-1-yl)pyridin-2-yl)thio)methyl)benzoic acid] |  |
| 0.316 to 1 µM | D (Category D: ≥6.5) |  | 0.316 µM |  | CCc1c(C#N)c(SCc2ccc(CNS(C)(=O)=O)cc2)nc(N2CCCN(C)CC2)c1C#N [Example 79, N-(4-(((3,5-Dicyano-4-ethyl-6-(4-methyl-1,4-diazepan-1-yl)pyridin-2-yl)thio)methyl)benzyl)methanesulfonamide] |  |
| 0.316 to 1 µM | D (Category D: ≥6.5) |  |  | > 6.5 | CCc1c(C#N)c(SCc2ccc(CNC(=O)CN)cc2)nc(N2CCCN(C)CC2)c1C#N [Example 80, 2-Amino-N-(4-(((3,5-dicyano-4-ethyl-6-(4-methyl-1,4-diazepan-1-yl)pyridin-2-yl)thio)methyl)benzyl)acetamide] |  |
| 1 to 31.6 µM |  | 0.316 to 1 µM | 0.316 to 1 µM |  | CCc1c(C#N)c(SCc2ccc(COC(C)=O)cc2)nc(N2CCCN(C)CC2)c1C#N [Example 82, 4-(((3,5-Dicyano-4-ethyl-6-(4-methyl-1,4-diazepan-1-yl)pyridin-2-yl)thio)methyl)benzyl acetate] |  |

Reference: patent US10975056B2 (GlaxoSmithKline Intellectual Property Development Limited, priority 2016, dated 2021)
